According to patent publication US12660819B2, “Herbicidal derivatives” (SYNGENTA CROP PROTECTION AG, priority 2020, dated 2026):

Columns and labels:
Format in all cases: in vivo
[1] = system: Amaranthus retoflexus (AMARE); experiment: Post-emergence Test (glasshouse, percentage damage to the plant); conditions: 1000 g/ha unless otherwise stated, evaluated after 13 days; for Post-emergence Test AMARE, percentage damage to the plant (five-point scale): post-emergence spray; for AMARE, percentage damage caused to the plant (five-point scale): post-emergence
Summary of the method: (§1)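 Percentage damage to the plant, assessed 13 days after application and scored 1–5 in 20% bands. Pots sown in standard soil received compound at 1000 g/ha unless otherwise stated, sprayed under 24/16 °C, 14 h light, 65% humidity.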

[2] = system: Echinochloa crus-galli (ECHCG); experiment: as above; conditions: 1000 g/ha unless otherwise stated, evaluated after 13 days; for Post-emergence Test ECHCG, percentage damage to the plant (five-point scale): post-emergence spray; for ECHCG, percentage damage caused to the plant (five-point scale): post-emergence
Summary of the method: as §1

[3] = system: Ipomoea hederacea (IPOHE); experiment: as above; conditions: 1000 g/ha unless otherwise stated, evaluated after 13 days; for Post-emergence Test IPOHE, percentage damage to the plant (five-point scale): post-emergence spray; for IPOHE, percentage damage caused to the plant (five-point scale): post-emergence
Summary of the method: (§2)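 After sowing in standard soil, pots were kept at 24/16 °C (day/night), 14 h light and 65% humidity. They were sprayed at 1000 g/ha unless otherwise stated, watered twice daily, and assessed for percentage damage at 13 days on a 1–5 scale.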

Lolium perenne (LOLPE) [4] = experiment: as above; conditions: post-emergence spray, 1000 g/ha unless otherwise stated, evaluated after 13 days
Summary of the method: as §1

Setaria faberi (SETFA) [5] = experiment: as above; conditions: 1000 g/ha unless otherwise stated, evaluated after 13 days; for Post-emergence Test SETFA, percentage damage to the plant (five-point scale): post-emergence spray; for SETFA, percentage damage caused to the plant (five-point scale): post-emergence
Summary of the method: as §2

[6] = system: Amaranthus retoflexus (AMARE); experiment: Pre-emergence Test (glasshouse, percentage damage to the plant); conditions: 1000 g/ha unless otherwise stated; for percentage damage to the plant, AMARE: five-point scale; for percentage damage to the plant, AMARE (five-point scale): Amaranthus retoflexus
Setaria faberi (SETFA) [7] = experiment: as above; conditions: 1000 g/ha unless otherwise stated; for percentage damage to the plant, SETFA: five-point scale; for percentage damage to the plant, SETFA (five-point scale): Setaria faberi
Lolium perenne (LOLPE) [8] = experiment: as above; conditions: 1000 g/ha unless otherwise stated, five-point scale
[9] = system: Echinochloa crus-galli (ECHCG); experiment: as above; conditions: 1000 g/ha unless otherwise stated; for percentage damage to the plant, ECHCG: five-point scale; for percentage damage to the plant, ECHCG (five-point scale): Echinochloa crus-galli
[10] = system: Ipomoea hederacea (IPOHE); experiment: as above; conditions: 1000 g/ha unless otherwise stated; for percentage damage to the plant, IPOHE: five-point scale; for percentage damage to the plant, IPOHE (five-point scale): Ipomoea hederacea
[11] = system: Amaranthus palmeri (AMAPA); experiment: Post-emergence Test (glasshouse, percentage damage to the plant); conditions: 1000 g/ha unless otherwise stated, evaluated after 13 days; for AMAPA, percentage damage caused to the plant (five-point scale): post-emergence
Summary of the method: as §1

Zea mays (ZEAMX) [12] = experiment: as above; conditions: 1000 g/ha unless otherwise stated, evaluated after 13 days; for ZEAMX, percentage damage caused to the plant (five-point scale): post-emergence
Summary of the method: as §2

Zea mays (ZEAMX) [13] = experiment: Pre-emergence Test (glasshouse, percentage damage to the plant); conditions: 1000 g/ha unless otherwise stated; for percentage damage to the plant, ZEAMX (five-point scale): Zea mays
[14] = system: Amaranthus palmeri (AMAPA); experiment: as above; conditions: 1000 g/ha unless otherwise stated; for percentage damage to the plant, AMAPA (five-point scale): Amaranthus palmeri

Compound | Post-emergence Test AMARE, percentage damage to the plant (five-point scale) [1] | Post-emergence Test ECHCG, percentage damage to the plant (five-point scale) [2] | Post-emergence Test IPOHE, percentage damage to the plant (five-point scale) [3] | Post-emergence Test SETFA, percentage damage to the plant (five-point scale) (Setaria faberi (SETFA) [5]) | percentage damage to the plant, AMARE [6] | percentage damage to the plant, SETFA (Setaria faberi (SETFA) [7]) | percentage damage to the plant, ECHCG [9] | AMAPA, percentage damage caused to the plant (five-point scale) [11] | AMARE, percentage damage caused to the plant (five-point scale) [1] | ECHCG, percentage damage caused to the plant (five-point scale) [2] | IPOHE, percentage damage caused to the plant (five-point scale) [3] | SETFA, percentage damage caused to the plant (five-point scale) (Setaria faberi (SETFA) [5]) | ZEAMX, percentage damage caused to the plant (five-point scale) (Zea mays (ZEAMX) [12]) | percentage damage to the plant, AMARE (five-point scale) [6] | percentage damage to the plant, SETFA (five-point scale) (Setaria faberi (SETFA) [7]) | percentage damage to the plant, ECHCG (five-point scale) [9] | percentage damage to the plant, IPOHE (five-point scale) [10] | percentage damage to the plant, ZEAMX (five-point scale) (Zea mays (ZEAMX) [13]) | percentage damage to the plant, AMAPA (five-point scale) [14] | also measured
CCn1c(C)c(-c2ccc(F)cc2F)c(=O)c(C(=O)O)c1-c1ccc(Cl)c(Cl)c1 [Compound 3, 2-(3,4-dichlorophenyl)-5-(2,4-difluorophenyl)-1-ethyl-6-methyl-4-oxo-pyridine-3-carboxylic acid] | 5 (5=81-100%) | 5 (5=81-100%) | 4 (4=61-80%) | 5 (5=81-100%) | 5 (5=81-100%) | 5 (5=81-100%) | 4 (4=61-80%) | – | – | – | – | – | – | – | – | – | – | – | – | Post-emergence Test LOLPE, percentage damage to the plant (five-point scale) (Lolium perenne (LOLPE) [4]): 4 (4=61-80%); percentage damage to the plant, LOLPE (Lolium perenne (LOLPE) [8]): 3 (3=41-60%); percentage damage to the plant, IPOHE [10]: 4 (4=61-80%)
CCn1c(C)c(-c2ccc(Cl)cc2)c(=O)c(C(=O)NN(C)C)c1-c1ccc(Cl)c(Cl)c1 [Compound 2, 5-(4-chlorophenyl)-2-(3,4-dichlorophenyl)-1-ethyl-N′,N′,6-trimethyl-4-oxo-pyridine-3-carbohydrazide] | 3 (3=41-60%) | 2 (2=21-40%) | 2 (2=21-40%) | 4 (4=61-80%) | 3 (3=41-60%) | 1 (1=0-20%) | 1 (1=0-20%) | – | – | – | – | – | – | – | – | – | – | – | – | Post-emergence Test LOLPE, percentage damage to the plant (five-point scale) (Lolium perenne (LOLPE) [4]): 1 (1=0-20%); percentage damage to the plant, LOLPE (Lolium perenne (LOLPE) [8]): 1 (1=0-20%)
CCn1c(C)c(-c2cc(OCC3CC3)c(Cl)cc2F)c(=O)c(C(=O)O)c1-c1ccc(F)c(F)c1 [Compound 262, 5-[4-chloro-5-(cyclopropylmethoxy)-2-fluoro-phenyl]-2-(3,4-difluorophenyl)-1-ethyl-6-methyl-4-oxo-pyridine-3-carboxylic acid] | – | – | – | – | – | – | – | 5 (5=81-100%) | 5 (5=81-100%) | 4 (4=61-80%) | 2 (2=21-40%) | 5 (5=81-100%) | 4 (4=61-80%) | 5 (5=81-100%) | 5 (5=81-100%) | 5 (5=81-100%) | 3 (3=41-60%) | 2 (2=21-40%) | 5 (5=81-100%) | –
CCn1c(C)c(-c2ccc(F)cc2OC)c(=O)c(C(=O)OC)c1-c1ccc(Cl)c(Cl)c1 [Compound 163, methyl 2-(3,4-dichlorophenyl)-1-ethyl-5-(4-fluoro-2-methoxy-phenyl)-6-methyl-4-oxo-pyridine-3-carboxylate] | 1 (1=0-20%) | 0 | 0 | 0 | 1 (1=0-20%) | 0 | 0 | – | – | – | – | – | – | – | – | – | – | – | – | Post-emergence Test AMAPA, percentage damage to the plant (five-point scale) ([11]; post-emergence spray): 2 (2=21-40%); Post-emergence Test ZEAMX, percentage damage to the plant (five-point scale) (Zea mays (ZEAMX) [12]; post-emergence spray): 0; percentage damage to the plant, IPOHE [10]: 0; percentage damage to the plant, ZEAMX (Zea mays (ZEAMX) [13]; five-point scale): 1 (1=0-20%); percentage damage to the plant, AMAPA ([14]; five-point scale): 1 (1=0-20%)
CCn1c(C)c(-c2ccc3ccccc3n2)c(=O)c(C(=O)O)c1-c1ccc(Cl)c(Cl)c1 [Compound 219, 2-(3,4-dichlorophenyl)-1-ethyl-6-methyl-4-oxo-5-(2-quinolyl)pyridine-3-carboxylic acid] | – | – | – | – | – | – | – | 3 (3=41-60%) | 3 (3=41-60%) | 1 (1=0-20%) | 3 (3=41-60%) | 1 (1=0-20%) | 0 | 0 | 1 (1=0-20%) | 0 | 0 | 0 | 1 (1=0-20%) | –
Cc1c(-c2ccc(F)cc2F)c(=O)c(C(=O)O)c(-c2ccc(Cl)c(Cl)c2)n1C [Compound 252, 2-(3,4-dichlorophenyl)-5-(2,4-difluorophenyl)-1,6-dimethyl-4-oxo-pyridine-3-carboxylic acid] | – | – | – | – | – | – | – | 5 (5=81-100%) | 4 (4=61-80%) | 5 (5=81-100%) | 2 (2=21-40%) | 4 (4=61-80%) | 2 (2=21-40%) | 3 (3=41-60%) | 4 (4=61-80%) | 5 (5=81-100%) | 3 (3=41-60%) | 0 | 5 (5=81-100%) | –
CCn1c(C)c(-c2ccc(F)cc2F)c(=O)c(C(=O)O)c1-c1cnc(Cl)c(Cl)c1 [Compound 210, 2-(5,6-dichloro-3-pyridyl)-5-(2,4-difluorophenyl)-1-ethyl-6-methyl-4-oxo-pyridine-3-carboxylic acid] | – | – | – | – | – | – | – | 4 (4=61-80%) | 5 (5=81-100%) | 4 (4=61-80%) | 3 (3=41-60%) | 4 (4=61-80%) | 3 (3=41-60%) | 3 (3=41-60%) | 2 (2=21-40%) | 1 (1=0-20%) | 0 | 0 | 4 (4=61-80%) | –
CCn1c(C)c(-c2ccc(Cl)cc2)c(=O)c(C(=O)OC)c1-c1cnc(Cl)c(Cl)c1 [Compound 215, methyl 5-(4-chlorophenyl)-2-(5,6-dichloro-3-pyridyl)-1-ethyl-6-methyl-4-oxo-pyridine-3-carboxylate] | – | – | – | – | – | – | – | 4 (4=61-80%) | 4 (4=61-80%) | 3 (3=41-60%) | 1 (1=0-20%) | 3 (3=41-60%) | 3 (3=41-60%) | 4 (4=61-80%) | 4 (4=61-80%) | 2 (2=21-40%) | 1 (1=0-20%) | 0 | 3 (3=41-60%) | –
CCn1c(C)c(-c2cc(C(F)(F)F)ccc2F)c(=O)c(C(=O)O)c1-c1ccc(Cl)c(Cl)c1 [Compound 206, 2-(3,4-dichlorophenyl)-1-ethyl-5-[2-fluoro-5-(trifluoromethyl)phenyl]-6-methyl-4-oxo-pyridine-3-carboxylic acid] | – | – | – | – | – | – | – | 4 (4=61-80%) | 4 (4=61-80%) | 2 (2=21-40%) | 2 (2=21-40%) | 4 (4=61-80%) | 1 (1=0-20%) | 2 (2=21-40%) | 5 (5=81-100%) | 2 (2=21-40%) | 3 (3=41-60%) | 0 | 4 (4=61-80%) | –
